Values quoted from earlier work as cited in PubChem BioAssay AID1259409 (Chemical Carcinogenesis Research Information System (CCRIS), 2018).

Tested on: rodent chemically induced tumor inhibition, incidence and multiplicity
Test: CCRIS tumor inhibitor studies
Conditions: Carcinogen: 7,12-DIMETHYLBENZ[A]ANTHRACENE, 57-97-6, Route [Inhibitor]: DERMAL, Species: MOUSE, Strain/Sex: CD-1/FEMALE
From the text: The CCRIS database contains chemical records with carcinogenicity, mutagenicity, tumor promotion, and tumor inhibition test results. It was developed by the National Cancer Institute (NCI). Data are derived from studies cited in primary journals, current awareness tools, NCI reports, and other sources. Test results have been reviewed by experts in carcinogenesis and mutagenesis.
CCRIS provides historical information from the years 1985 - 2011. It is no longer updated.
This is an archive assay for CCRIS tumor inhibitor studies.

SMILES: CC(C)Cn1c(=O)n(C)c(=O)c2[nH]cnc21
- tumour outcome (control, treated, inhibition, significance) (Dose [Inhibitor]: 5 UMOL 2/WK FOR 48 WK APPLIED AT LEAST 5 MIN BEFORE AND TO SAME AREA OF SKIN AS EACH PROMOTER DOSE, STARTING 2 WK AFTER, Target Tissue: Type of Lesion: SKIN: CARCINOMA, Dose [Carcinogen]: 0.1 UMOL ONCE 2 WK PRIOR TO FIRST DOSE OF INHIBITOR, Promoter: 12-O-TETRADECANOYLPHORBOL-13-ACETATE;16561-29-8): 35%, 19%, 46%, not calculated
- tumour outcome (control, treated, inhibition, significance) (Dose [Inhibitor]: 5 UMOL 2/WK FOR 48 WK APPLIED AT LEAST 5 MIN BEFORE AND TO SAME AREA OF SKIN AS EACH PROMOTER DOSE, STARTING 2 WK AFTER, Target Tissue: Type of Lesion: SKIN: PAPILLOMA, Dose [Carcinogen]: 0.1 UMOL ONCE 2 WK PRIOR TO FIRST DOSE OF INHIBITOR, Promoter: 12-O-TETRADECANOYLPHORBOL-13-ACETATE;16561-29-8): 100%, 82%, 18%, not calculated
- tumour outcome (control, treated, inhibition, significance) (Dose [Inhibitor]: 5 UMOL APPLIED 2/WK THROUGHOUT THE STUDY AT LEAST 5 MIN BEFORE AND TO SAME AREA OF SKIN AS EACH DOSE OF PROMOTER STARTIN, Target Tissue: Type of Lesion: SKIN: CARCINOMA, Dose [Carcinogen]: 0.1 UMOL APPLIED ONCE, Promoter: 12-O-TETRADECANOYLPHORBOL-13-ACETATE, 16561-29-8): 35%, 19%, 46%, not calculated
- tumour outcome (control, treated, inhibition, significance) (Dose [Inhibitor]: 5 UMOL APPLIED 2/WK THROUGHOUT THE STUDY AT LEAST 5 MIN BEFORE AND TO SAME AREA OF SKIN AS EACH DOSE OF PROMOTER STARTIN, Target Tissue: Type of Lesion: SKIN: PAPILLOMA, Dose [Carcinogen]: 0.1 UMOL APPLIED ONCE, Promoter: 12-O-TETRADECANOYLPHORBOL-13-ACETATE, 16561-29-8): 100%, 82%, 18%, not calculated
- tumour outcome (control, treated, inhibition, significance) (Dose [Inhibitor]: 10 UMOL 1/WK FOR 30 WK APPLIED AT LEAST 5 MIN PRIOR TO EACH CARCINOGEN TREATMENT (STUDY DURATION: 30 WK), Target Tissue: Type of Lesion: SKIN: CARCINOMA, Dose [Carcinogen]: 0.2 UMOL 1/WK FOR 30 WK, Promoter: NONE USED): 59%, 42%, 29%, not significant
- tumour outcome (control, treated, inhibition, significance) (Dose [Inhibitor]: 10 UMOL 1/WK FOR 30 WK APPLIED AT LEAST 5 MIN PRIOR TO EACH CARCINOGEN TREATMENT (STUDY DURATION: 30 WK), Target Tissue: Type of Lesion: SKIN: PAPILLOMA, Dose [Carcinogen]: 0.2 UMOL ONCE 1/WK FOR 30 WK, Promoter: NONE USED): 100%, 100%, 0%, not significant
- tumour outcome (control, treated, inhibition, significance) (Dose [Inhibitor]: 10 UMOL APPLIED 1/WK THROUGHOUT THE STUDY AT LEAST 5 MIN BEFORE AND TO SAME AREA OF SKIN AS EACH APPLICATION OF CARCINOG, Target Tissue: Type of Lesion: SKIN: CARCINOMA, Dose [Carcinogen]: 0.2 UMOL 1/WK FOR 30 WK, Promoter: NONE USED): 59%, 42%, 29%, not significant
- tumour outcome (control, treated, inhibition, significance) (Dose [Inhibitor]: 10 UMOL APPLIED 1/WK THROUGHOUT THE STUDY AT LEAST 5 MIN BEFORE AND TO SAME AREA OF SKIN AS EACH APPLICATION OF CARCINOG, Target Tissue: Type of Lesion: SKIN: PAPILLOMA, Dose [Carcinogen]: 0.2 UMOL 1/WK FOR 30 WK, Promoter: NONE USED): 100%, 100%, 0%, not significant
- outcome (Dose [Inhibitor]: 10 UMOL APPLIED ONCE AT LEAST 5 MIN PRIOR TO CARCINOGEN DOSE (STUDY DURATION: 34 WK), Target Tissue: Type of Lesion: SKIN: CARCINOMA, Dose [Carcinogen]: 3.6 UMOL ONCE, Promoter: NONE USED): 0%, 4%, not calculated
